Reference: patent US20070225344A1, “Sulfonamide derivatives to treat infection with hepatitis C virus” (priority 2006, published 2007)

test system: not given; assay: not given; settings: not given

Row | SMILES | melting point [°C]
1 | O=C(O)[C@@H]1CCCN1S(=O)(=O)c1cc(Cl)cc(Cl)c1O [Example 11, 1-[(3,5-dichloro-2-hydroxyphenyl)sulfonyl]-L-proline] | 107.4

molecular target: T1, HCV RdRp NS5B d21BK (BK strain, 1b subtype) (Hepatitis C virus genotype 1b, UniProt P26663); assay: HCV polymerase (NS5B) RNA-dependent RNA polymerase inhibition, 33P-GTP filter assay; type: biochemical; settings: in vitro; NS5B BK strain (1b subtype), 24 nM enzyme, 2 h at room temperature; read-out: HCV Polymerase Median IC50
T1 construct: NS5B from the BK strain (1b subtype) is expressed in E. coli as a protein in which the 21 C-terminal amino acids are replaced; made in house; host or cells: E. coli
Description: The ability of the compounds of the present invention to inhibit hepatitis C polymerase was established by the following experimental procedure:
NS5B from the BK strain (1b subtype) is expressed in E. coli as a protein in which the 21 C-terminal amino acids are replaced with a short linker and a hexahistidine tag (GSHHHHHH). The purified protein is mixed with radioactive nucleotides and allowed to replicate a heteropolymeric RNA substrate, primed by an endogenous short hairpin, resulting in an approximately 760 nt product. The radioactive product is captured on a filter and quantitated after removal of the unincorporated nucleotides.
(1) Compounds 10 μl at 10 μg/ml in 15% DMSO
Add 20 μl enzyme mix into each well of the assay plate. Incubate compound and enzyme at room temperature for 15 minutes.
(3) Template Mix—Prepare Ahead.
Spin down a tube of RNA (5 μg/tube stored in 75% ethanol and 0.3 M sodium acetate) in a microcentrifuge for 20 min. at 4° C. One tube is enough for 1 to 1½ plates. Remove as much ethanol from the tube as possible by inverting the tube. Be gentle, pellet RNA may not adhere to the tube. Vacuum dry the RNA. Resuspend the RNA by adding 1 ml of DEPC water, close the cap of the tube tightly. To dissolve RNA, incubate RNA solution on ice for ˜60 min. and gently vortex. Spin briefly to ensure all RNA solution is down to the bottom of the tube before opening cap. Gently transfer RNA solution into a 5 ml or larger tube. Add another 3 ml of DEPC water (total 4 ml of volume).
Add the following volumes of reagents.
Add 20 μl template mix per reaction (i.e. 20 ng of POF per reaction or ˜3 nM)
(4) Incubate reaction at room temperature (22-25° C.) for 2 hours.
(5) Stop reaction by adding 50 μl of 170 mM EDTA.
Final concentration of EDTA is 85 mM.
(6) Prewet filters of Millipore Multiscreen filter plate by adding 200 μl of 0.5 M sodium phosphate buffer, pH 7.0 into each well. Let stand at room temperature for 2-3 min.
(7) Place the Multiscreen filter plate onto a Millipore Manifold and turn on vacuum to allow buffer to flow through. Turn off vacuum. Transfer 80 μl of the reaction product into each well of the filter plate. Let stand for 2-3 min. Turn on vacuum to filter reaction product.
(8) Turn off vacuum. Add 200 μl of 0.5 M sodium phosphate buffer, pH 7.0 into each well to wash filter. Turn on vacuum.
Repeat step (8) three more times.
(9) Remove polypropylene bottom. Spot dry filter at the bottom with paper towel. Air dry filter plate on a bench for 1 hr. Add 40 μl Super Mix scintillant. Seal top of the plate with a tape. Place plate into a Packard carrier or MicroBeta carrier.
(10) Count plate using a Packard Topcount or MicroBeta counter. Program 10 for ^33P in Top count or ^33P program in micro-beta.
Percent inhibition is calculated after background subtraction as a percent reduction of activity relative to the positive control (average value of the plate excluding the negative controls).

T1 sequence (P26663 2420-2997, looked up, natural form): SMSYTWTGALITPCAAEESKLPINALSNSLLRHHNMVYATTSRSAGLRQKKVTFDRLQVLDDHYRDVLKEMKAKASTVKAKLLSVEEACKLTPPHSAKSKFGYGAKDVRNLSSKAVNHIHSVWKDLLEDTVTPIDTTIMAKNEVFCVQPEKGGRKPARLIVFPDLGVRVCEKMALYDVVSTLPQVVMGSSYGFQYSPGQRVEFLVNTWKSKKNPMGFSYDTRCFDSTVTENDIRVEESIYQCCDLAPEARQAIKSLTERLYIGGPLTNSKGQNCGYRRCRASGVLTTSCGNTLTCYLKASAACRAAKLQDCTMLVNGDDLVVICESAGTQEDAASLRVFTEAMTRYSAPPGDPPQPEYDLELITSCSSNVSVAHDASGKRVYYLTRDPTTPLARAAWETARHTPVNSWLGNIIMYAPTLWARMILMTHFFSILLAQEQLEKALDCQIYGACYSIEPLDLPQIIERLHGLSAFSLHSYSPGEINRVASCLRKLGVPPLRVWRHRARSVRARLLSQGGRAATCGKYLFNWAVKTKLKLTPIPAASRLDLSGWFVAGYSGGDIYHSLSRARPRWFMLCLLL

Row | SMILES | IC50 [nM]
2 | O=C(O)[C@@H]1CCCN1S(=O)(=O)c1cc(Cl)cc(Cl)c1O [Example 11, 1-[(3,5-dichloro-2-hydroxyphenyl)sulfonyl]-L-proline] | 890
3 | O=C(O)[C@@H]1CCCCN1S(=O)(=O)c1cc(Cl)cc(Br)c1O [Example 39, (2S)-1-[(3-bromo-5-chloro-2-hydroxyphenyl)sulfonyl]piperidine-2-carboxylic acid] | 450
4 | O=C(O)[C@H]1CCCCN1S(=O)(=O)c1cc(Cl)cc(Br)c1O [Example 40, (2R)-1-[(3-bromo-5-chloro-2-hydroxyphenyl)sulfonyl]piperidine-2-carboxylic acid] | 1160
5 | O=C(O)[C@@H]1CCCCN1S(=O)(=O)c1cc(F)cc(Cl)c1O [Example 41, (2S)-1-[(3-chloro-5-fluoro-2-hydroxyphenyl)sulfonyl]piperidine-2-carboxylic acid] | 1890
6 | O=C(O)[C@H]1CCCCN1S(=O)(=O)c1cc(Cl)cc(Cl)c1O [Example 42, (2R)-1-[(3,5-dichloro-2-hydroxyphenyl)sulfonyl]piperidine-2-carboxylic acid] | 2010
7 | O=C(O)[C@@H]1CCCCN1S(=O)(=O)c1cc(Cl)cc(Cl)c1O [Example 43, (2S)-1-[(3,5-dichloro-2-hydroxyphenyl)sulfonyl]piperidine-2-carboxylic acid] | 7100
8 | Cc1cc(N)c(S(=O)(=O)N2CCCC[C@@H]2C(=O)O)cc1Cl [Example 44, (2R)-1-[(2-amino-5-chloro-4-methylphenyl)sulfonyl]piperidine-2-carboxylic acid] | 7900
9 | O=C(O)[C@@H]1CSCN1S(=O)(=O)c1cc(Cl)c(Cl)c(Cl)c1O [Example 45, (4R)-3-[(3,4,5-trichloro-2-hydroxyphenyl)sulfonyl]-1,3-thiazolidine-4-carboxylic acid] | 50
10 | O=C(O)[C@H]1CSCN1S(=O)(=O)c1cc(Cl)c(Cl)c(Cl)c1O [Example 46, (4S)-3-[(3,4,5-trichloro-2-hydroxyphenyl)sulfonyl]-1,3-thiazolidine-4-carboxylic acid] | 260
11 | O=C(O)[C@@H]1CSCN1S(=O)(=O)c1cc(Cl)cc(Cl)c1O [Example 47, (4R)-3-[(3,5-dichloro-2-hydroxyphenyl)sulfonyl]-1,3-thiazolidine-4-carboxylic acid] | 240
12 | O=C(O)[C@@H]1CSCN1S(=O)(=O)c1cc(Br)cc(Br)c1O [Example 48, (4R)-3-[(3,5-dibromo-2-hydroxyphenyl)sulfonyl]-1,3-thiazolidine-4-carboxylic acid] | 460
13 | O=C(O)[C@@H]1CSCN1S(=O)(=O)c1cc(F)cc(Cl)c1O [Example 49, (4R)-3-[(3-chloro-5-fluoro-2-hydroxyphenyl)sulfonyl]-1,3-thiazolidine-4-carboxylic acid] | 2130
14 | O=C(O)[C@H]1CSCN1S(=O)(=O)c1cc(Cl)cc(Br)c1O [Example 50, (4S)-3-[(3-bromo-5-chloro-2-hydroxyphenyl)sulfonyl]-1,3-thiazolidine-4-carboxylic acid] | 870
15 | O=C(O)[C@H]1CSCN1S(=O)(=O)c1cc(Cl)cc(Cl)c1O [Example 51, (4S)-3-[(3,5-dichloro-2-hydroxyphenyl)sulfonyl]-1,3-thiazolidine-4-carboxylic acid] | 1710
16 | O=S(=O)(c1cc(Cl)cc(Cl)c1O)N1CCSC1 [Example 52, 2,4-dichloro-6-(1,3-thiazolidin-3-ylsulfonyl)phenol] | 2350
17 | Cc1cc(N)c(S(=O)(=O)N2CSC[C@@H]2C(=O)O)cc1Cl [Example 53, (4S)-3-[(2-amino-5-chloro-4-methylphenyl)sulfonyl]-1,3-thiazolidine-4-carboxylic acid] | 3050
18 | Cc1cc(S(=O)(=O)N2CSC[C@H]2C(=O)O)c(N)cc1Cl [Example 54, (4R)-3-[(2-amino-4-chloro-5-methylphenyl)sulfonyl]-1,3-thiazolidine-4-carboxylic acid] | 4750
19 | Cc1cc(S(=O)(=O)N2CSC[C@@H]2C(=O)O)c(N)cc1Cl [Example 55, (4S)-3-[(2-amino-4-chloro-5-methylphenyl)sulfonyl]-1,3-thiazolidine-4-carboxylic acid] | 7500
20 | O=C(O)[C@@H]1CSCN1S(=O)(=O)c1cc(Cl)cc(Br)c1O [Example 56, (4R)-3-[(3-bromo-5-chloro-2-hydroxyphenyl)sulfonyl]-1,3-thiazolidine-4-carboxylic acid] | 11200
21 | O=C(O)[C@H]1CSCN1S(=O)(=O)c1cc(F)cc(Cl)c1O [Example 57, (4S)-3-[(3-chloro-5-fluoro-2-hydroxyphenyl)sulfonyl]-1,3-thiazolidine-4-carboxylic acid] | 14400
22 | Cc1cc(N)c(S(=O)(=O)N2CSC[C@H]2C(=O)O)cc1Cl [Example 58, (4R)-3-[(2-amino-5-chloro-4-methylphenyl)sulfonyl]-1,3-thiazolidine-4-carboxylic acid] | 1980
